Measurements reported in paper PMC11434840, “Discovery of Benzopyrone-Based Candidates as Potential Antimicrobial and Photochemotherapeutic Agents through Inhibition of DNA Gyrase Enzyme B: Design, Synthesis, In Vitro and In Silico Evaluation” (Pharmaceuticals, 2024).
Read-outs that look alike come from different tables or passages of the source.

Assays:
[1] = test system: Bacillus subtilis ATCC 14579; assay: Antimicrobial agar cup-plate assay, B. subtilis; format: cell-based; design: key: -: no activity; settings: 0.1 mL of compound in DMF, overnight incubation, mean ± SD, at least three experiments
Description: (§1) The antimicrobial activity of all newly synthesized compounds was determined using the agar cup-plate method using the Hi-Media agar medium. Xanthotoxin, tobramycin, and amphotericin B were used as reference drugs. All newly synthesized compounds were tested against two strains of Gram-positive bacteria (Bacillus subtilis ATCC 14579 and Staphylococcus aureus ATCC 25923), Gram-negative bacteria (Escherichia coli ATCC 25922), and yeast (Candida albicans ATCC 10231).
(§2) The nutrient agar medium consists of 0.3% of beef extract, 0.5% of peptone, 0.1% dipotassium hydrogen phosphate, and 1.5% agar. Broth cultures of the organisms were prepared by incubating slant agar seeded with the organisms overnight.
(§3) The prepared broth culture (0.02 mL) was carefully added to sterile Petri dishes. Then, 10 mL of the liquefied nutrient agar medium was poured into each dish, mixed uniformly, and allowed to solidify. Using a sterilized cork borer, cups (9 mm) were scooped out of the agar media contained in the Petri dishes. Each test compound (50 mg) was dissolved in 1 mL DMF (50 mg mL^−1), which was used as a stock solution to carry out the twofold dilution technique. A fixed volume (0.1 mL) of the tested compounds dissolved in dimethylformamide (DMF) was added. Each plate contained a cup filled with DMF to disregard the effect of solvent. Additionally, two other cups were filled with tobramycin and xanthotoxin being used as reference drugs. The plates were incubated overnight to examine the antimicrobial activity. Zones of inhibition obtained by each test compound were measured in millimeters and the results are recorded in Table 2.
(§4) GraphPad Prism-version 5 (GraphPad Software, Inc., La Jolla, CA, USA) was used for statistical analysis.

[2] = test system: Staphylococcus aureus ATCC 25923; assay: Antimicrobial agar cup-plate assay, S. aureus; format: cell-based; design: key: -: no activity; settings: 0.1 mL of compound in DMF, overnight incubation, mean ± SD, at least three experiments
Description: as §1, §2, §3, §4

[3] = test system: Escherichia coli ATCC 25922; assay: Antimicrobial agar cup-plate assay, E. coli; format: cell-based; settings: 0.1 mL of compound in DMF, overnight incubation, mean ± SD, at least three experiments
Description: as §1, §2, §3, §4

[4] = test system: Candida albicans ATCC 10231; assay: Antimicrobial agar cup-plate assay, C. albicans; format: cell-based; design: key to Inhibition Zone (mm) C. albicans: -: no activity; settings: 0.1 mL of compound in DMF, overnight incubation, mean ± SD, at least three experiments
Description: as §1, §2, §3, §4

[5] = test system: Bacillus subtilis ATCC 14579; assay: Photosensitizing assay (MIC before and after UV irradiation, agar cup-plate); format: cell-based; design: key to MIC (mg mL^−1) Control / MIC (mg mL^−1) Test / MIC (mM) Control / MIC (mM) Test: -: no activity; settings: B. subtilis; for MIC: Bacillus subtilis, ATCC14579, light or radiation study
Description: The photosensitizing activity was determined using the agar cup-plate method (described in Section 2.3) with Hi-Media agar medium. The antibacterial activity against Bacillus subtilis ATCC 14579 was measured before and after exposure to UV lamp (365 nm). The diameters of the inhibition zones were measured in mm and the results were compared with xanthotoxin. The tested organism used was Bacillus subtilis.
For the photosensitizing activity, xanthotoxin was used as a reference drug and DMF as a negative control. The minimum inhibitory concentrations (MIC) were determined using the agar cup-plate method. Each test compound (50 mg) was dissolved in 1 mL DMF (50 mg mL^−1), which was used as a stock solution to carry out the twofold dilution technique. The sample size for all the compounds was adjusted to 0.1 mL. The solution of the test compound (0.1 mL) was added to the cups. The plates were divided into test plates and duplicate plates. Before irradiation, the test plates were incubated in the dark at 37 °C for 3 h to permit the diffusion of the tested compounds through the agar layer. The duplicate plates were incubated overnight and used as a control for the determination of the antibacterial activity. The covers were removed from the test plates, and the dishes were exposed to UV lamp (365 nm) for 20 min. After irradiation, the plates were left overnight in the dark at 37 °C. MIC, the least concentration preventing visible bacterial growth, was determined in both the control and test, indicating the antibacterial and photosensitizing activity of the tested compounds, respectively.
To evaluate the significance of the difference in the results, each experiment was repeated at least three times. […] GraphPad Prism-version 5 (GraphPad Software, Inc., La Jolla, CA, USA) was used to perform statistical analysis of the results.

[6] = 20 min, after irradiation with UV lamp (365 nm) for 20 min (photosensitizing activity), 100 μL per cup, read-out: MIC (mg mL^−1) Test
[7] = 20 min, after irradiation with UV lamp (365 nm) for 20 min (photosensitizing activity), read-out: MIC (mM) Test
[8] = without irradiation (antibacterial activity), 100 μL per cup, read-out: MIC (mg mL^−1) Control
[9] = without irradiation (antibacterial activity), read-out: MIC (mM) Control
[10] = after irradiation with UV lamp (365 nm) for 20 min (photosensitizing activity)
[11] = after irradiation with UV lamp (365 nm) for 20 min (photosensitizing activity), 100 μL per cup
[12] = without irradiation (antibacterial activity)
[13] = without irradiation (antibacterial activity), 100 μL per cup

Row | melting point [°C] | Compound | Inhibition Zone (mm) B. subtilis [1] | Inhibition Zone (mm) S. aureus [2] | Inhibition Zone (mm) E. coli [3] [mm] | Inhibition Zone (mm) C. albicans [4] | MIC [5, 6] [µg/mL] | MIC [5, 7] [mM] | MIC [5, 8] [µg/mL] | MIC [5, 9] [mM] | MIC (mM) Test [5, 10] | MIC (mg mL^−1) Test [5, 11] | MIC (mM) Control [5, 12] | MIC (mg mL^−1) Control [5, 13]
1 | 136 to 139 | CCc1cc2c(C)cc(=O)oc2cc1OCC(=O)c1ccc(C)cc1 [Compound 7b, 6-Ethyl-4-methyl-7-(4-methylphenacyloxy)-2H-1-benzopyran-2-one] | 13 ± 1.414 mm | 24 ± 1.414 mm | 20 ± 1.414 | - | 190 | 0.56 | 1500 | 4.46 |  |  |  | 
2 | 162 to 164 | CCc1cc2c(C)cc(=O)oc2cc1OCC(=O)c1ccc(OC)cc1 [Compound 7c, 6-Ethyl-4-methyl-7-(4-methoxyphenacyloxy)-2H-1-benzopyran-2-one] | 10 ± 1.414 mm | - | 15 ± 1.414 | - | 3120 | 8.87 | 12500 | 35.5 |  |  |  | 
3 | 153 to 155 | CCc1cc2c(-c3ccccc3)cc(=O)oc2cc1OCC(=O)c1ccccc1 [Compound 7d, 6-Ethyl-7-phenacyloxy-4-phenyl-2H-1-benzopyran-2-one] | 9 ± 1.414 mm | - | 16 ± 1.414 | - | 6250 | 16.3 | 6250 | 16.3 |  |  |  | 
4 | 183 to 185 | CCc1cc2c(-c3ccccc3)cc(=O)oc2cc1OCC(=O)c1ccc(OC)cc1 [Compound 7f, 6-Ethyl-7-(4-methoxyphenacyloxy)-4-phenyl-2H-1-benzopyran-2-one] | - | - | 23 ± 0.8165 | 16 ± 0.8165 mm |  |  |  |  | - | - | - | -
5 | 150 to 153 | CCc1cc2c(-c3ccccc3)cc(=O)oc2c2c(-c3ccc(OC)cc3)coc12 [Compound 8f, 9-Ethyl-3-(4-methoxyphenyl)-7-phenyl-5H-furo[2,3-h]benzopyran-5-one] | 14 ± 1.414 mm | 20 ± 1.414 mm | 18 ± 0.8165 | - | 3120 | 7.88 | 6250 | 15.8 |  |  |  | 

Continued, compound first:

Row | Compound | melting point [°C] | Inhibition Zone (mm) B. subtilis [1] | Inhibition Zone (mm) S. aureus [2] | Inhibition Zone (mm) E. coli [3] [mm] | Inhibition Zone (mm) C. albicans [4] | MIC [5, 6] [µg/mL] | MIC [5, 7] [mM] | MIC [5, 8] [µg/mL] | MIC [5, 9] [mM] | MIC (mM) Test [5, 10] | MIC (mg mL^−1) Test [5, 11] | MIC (mM) Control [5, 12] | MIC (mg mL^−1) Control [5, 13]
6 | CCc1cc2c(C)cc(=O)oc2c2c1oc1ccccc12 [Compound 6a, 6-Ethyl-4-methyl-2H-benzofuro[2,3-h]benzopyran-2-one] | 120 to 122 | 20 ± 1.414 mm | 30 ± 1.414 mm | 23 ± 1.414 | 21 ± 0.8165 mm | 390 | 1.4 | 3120 | 11.2 |  |  |  | 
7 | CCc1cc2c(-c3ccccc3)cc(=O)oc2c2c1oc1ccccc12 [Compound 6b, 6-Ethyl-4-phenyl-2H-benzofuro[2,3-h]benzopyran-2-one] | 120 to 122 | 22 ± 1.414 mm | 30 ± 1.414 mm | 17 ± 1.414 | 15 ± 1.414 mm | 1500 | 4.41 | 3120 | 9.18 |  |  |  | 
8 | CCc1cc2c(C)cc(=O)oc2cc1OCC(=O)c1ccccc1 [Compound 7a, 6-Ethyl-4-methyl-7-phenacyloxy-2H-1-benzopyran-2-one] | 165 to 166 | 12 ± 1.414 mm | 28 ± 1.414 mm | 20 ± 0.8165 | - | 1500 | 4.65 | 6250 | 19.4 |  |  |  | 
9 | CCc1cc2c(-c3ccccc3)cc(=O)oc2cc1OCC(=O)c1ccc(C)cc1 [Compound 7e, 6-Ethyl-7-(4-methylphenacyloxy)-4-phenyl-2H-1-benzopyran-2-one] | 225 to 226 | - | - | 20 ± 0.8165 | - |  |  |  |  | - | - | - | - ^d
10 | CCc1cc2c(C)cc(=O)oc2c2c(-c3ccc(OC)cc3)coc12 [Compound 8c, 9-Ethyl-3-(4-methoxyphenyl)-7-methyl-5H-furo[2,3-h]benzopyran-5-one] | 110 to 111 | 12 ± 1.414 mm | 20 ± 0.8165 mm | 24 ± 1.414 | - | 97 | 0.29 | 780 | 2.33 |  |  |  | 
11 | CCc1cc2c(-c3ccccc3)cc(=O)oc2c2c(-c3ccc(C)cc3)coc12 [Compound 8e, 9-Ethyl-3-(4-methylphenyl)-7-phenyl-5H-furo[2,3-h]benzopyran-5-one] | 80 to 81 | 20 ± 1.414 mm | 22 ± 1.414 mm | 25 ± 0.8165 | - | 97 | 0.25 | 390 | 1.03 |  |  |  | 
